Test system: PAF induced mortality
Assay: Prevention of mortality induced by platelet aggregating factor (PAF)
Assay type: in vivo, mice (CF1)
Conditions: Mus musculus, Platelet; oral, PAF 0.10 mg/kg i.v.; read-out: oral ID50 (Inhibiting Dose), PAF induced mortality
Protocol: (k) Prevention of Mortality Induced by Platelet Aggregating Factor (PAF)
Male CF1 mice weighing 20-30 gms (Carworth Farms Co.) are fed ad libitum.
Racemic 2-[[[2-(acetyloxy)-3-(octadecyloxy)propoxy]hydroxyphosphinyl]oxy]-N,N,N-trimethylethanaminium hydroxide inner salt hemihydrate (PAF) is concentrated in ethanol at a concentration of 1 mg/ml.At the time of experimentation, PAF is diluted in 0.1% BSA (bovine serum albumin) and administered intravenously at a dose of 0.10 mg/kg one hour after 10 mice are dosed with either vehicle (BSA) or drug. Mortality in mice treated with PAF occurs within 30 minutes after i.v. administration.

CC(C)c1ccc2nc3ccc(C(=O)NCCCCCCn4ccnc4)cn3c(=O)c2c1 [Example 31, 2-(1-methylethyl)-N-[6-(1H-imidazol-1-yl)hexyl]-11-oxo-11H-pyrido[2,1-b]quinazoline-8-carboxamide] gave an ED50 of 17 mg/kg.

Reference: patent publication US4551460A, “Pyrido[2,1-b]quinazoline derivatives useful as agents for treatment of allergic conditions and vascular disorders involving thrombosis” (priority 1983, dated 1985)
